In ChEMBL document CHEMBL1142505, “Synthesis and antitubercular activity of ferrocenyl diaminoalcohols and diamines” (2008) one finds MIC data, which are given here for 3 molecules.

Each structure is given as a SMILES string. In brackets after ≈: the same amount, converted by molar mass. Some results are limits rather than exact numbers.

The assay deals with Mycobacterium tuberculosis. The assay can be described thus: Antitubercular activity against Mycobacterium tuberculosis H37Rv after 2 days by mycobacteria growth indicator tube system. In kind it is functional. The conditions noted are these: 48 h.
The term MIC denotes the lowest concentration found to suppress growth. Read a low MIC as greater potency. Molecule `c1ccc(CNCCNCc2ccccc2)cc1` showed an MIC greater than 64 µg/mL.

With `CC(CNCc1ccccc1)NCc1ccccc1` (stereo not drawn), the MIC was greater than 64 µg/mL.

The molecule `CC[C@@H](CO)NCCN[C@@H](CC)CO` [ETHAMBUTOL] registered an MIC of 2 µg/mL (≈ 9.79 µM).
